According to EP4620956A1, “PARP1 INHIBITORS” (Zhejiang Yangli Pharmaceutical Technology Co., Ltd., priority 2022, dated 2024):

Columns and labels:
[1] = test system: MDA-MB-436 xenograft tumour; assay: Anti-tumour effect in MDA-MB-436 subcutaneous xenograft tumour mouse model; assay type: in vivo; conditions: same dose, MDA-MB-436 xenograft mice
Method: Example 4 was further verified in vivo. A subcutaneous xenograft tumour mouse model of the BRCA1-mutated MDA-MB-436 cell line was selected. Human breast cancer MDA-MB-436 cells (ATCC, HTB-130) were cultured in vitro in a monolayer, with the culture conditions of L-15 medium supplemented with 10% foetal bovine serum, 1% penicillin-streptomycin solution, and 0.01 mg/mL bovine insulin, and cultured at 37°C in a CO2-free incubator. The cells were routinely digested and passaged twice a week using trypsin-EDTA. When the cell confluency reached 80%-90%, the cells were harvested and counted, and 0.2 mL of 1 × 10^7 MDA-MB-436 cells were subcutaneously inoculated on the right back of each mouse (PBS : Matrigel = 1 : 1). When the mean tumour volume reached 152 mm^3, the mice were grouped for drug administration. The day of drug administration was set as Day 0. The tumour volume and the body weight of the mice were monitored twice a week, and the drug treatment lasted for 28 days.
The diameter of the tumour was measured with a vernier calliper. The tumour volume is calculated according to the following equation: V = 0.5a × b^2, where a and b represent the long and short diameters of the tumour, respectively. The tumour inhibition effect of the compound was evaluated by relative tumour shrinkage rate Reg%. Reg% reflects the rate of tumour volume reduction after treatment. Reg% = (V0-Vt)/V0×100%, where V0 is the tumour volume measured at the time of grouping for drug administration (i.e., d0), and Vt is the tumour volume measured at a certain time point.
The criteria for compound response in the mouse model were adapted from mRECIST (Modified Response Evaluation Criteria in Solid Tumours) (Gao et al, 2015), and are specifically defined as follows: [formula] • PR (Partial Response): BestResponse < −50% and BestAvgResponse < −20%; [formula] • SD (Stable Disease): BestResponse < 35% and BestAvgResponse < 30%; [formula] • PD (Progressive Disease): other cases; • ORR% is the sum of the proportions of Complete Response (CR) and Partial Response (PR).
Statistical analysis was performed using Prism software, including the mean value (Mean) and standard error of the mean (SEM) of the tumour volume at each time point for each group. For the statistical analysis of TV, the original TV data from each measurement were used to compare the differences between groups. Two-way ANOVA was applied to include the two factors, i.e., drug administration and time for analysis, followed by the Tukey's multiple comparisons test, wherein p < 0.05 was considered statistically significant.

MDA-MB-436 = assay: Anti-proliferative activity (CellTiter-Glo, 7 days), MDA-MB-436; assay type: cell-based, human
DLD-1 WT = assay: Anti-proliferative activity (CellTiter-Glo, 7 days), DLD-1 WT; assay type: cell-based, human
Method: The anti-proliferation experiment of the compounds on tumour cells adopted the most widely used ATP concentration-based detection method at present. MDA-MB-231 and MDA-MB-436 cell lines were obtained from ATCC, DLD-1 human colourectal adenocarcinoma epithelial cells and DLD-1 BRCA2^-/- cells were obtained from Horizon, and the cells were revived. After the cells were stable, the cells were collected. When the viable cell count exceeded 90%, 450-500 cells were seeded into a 384-well plate. The next day, the example compounds with serially diluted concentrations were added. Only buffer was added to the Max well, and 50 µM AZD2281 was added to the Min well. The plate was incubated for 7 days, and on the eighth day, CellTiter-Glo® reagent (Promega, G7573) was added. The plate was incubated at room temperature for 30 minutes, and the values were read on Envision (PE). The inhibition rate was calculated using the fluorescence values from the Max and Min wells, and the dose-response curve was fitted using the analysis software GraphPad Prism 5 to obtain the IC50 value of each compound for the enzyme activity.

cleaved caspase-3 = assay: Cleaved caspase-3 in MDA-MB-436 xenograft tumour tissues (immunoblotting); assay type: in vivo, mice; conditions: 10 days of treatment, 0.25 hours and 24 hours after the last administration, FIG. 5 and 6
Method: The pro-apoptotic effect of the compounds was further verified in vivo. The changes of cleaved caspase-3 in subcutaneous xenograft tumour tissues of MDA-MB-436 mice were detected by immunoblotting. After 10 days of treatment with different compounds, the animals were euthanized 0.25 hours and 24 hours after the last administration, and the tumour tissues were obtained for analysis. The rapidly frozen tumour tissues were placed on dry ice, 350 µL of complete cell lysis buffer (containing 1% protease inhibitors and phosphatase inhibitors) was added, the tissues were disrupted using Tissue grinder for 5 minutes, and the tissue lysate was placed on ice for 30 minutes. Centrifugation was performed at 12,000 rpm and 4°C for 10 minutes, the supernatant was placed in a new 1.5 mL centrifuge tube, and protein quantification was carried out using a BCA quantification kit. According to the quantitative results, the sample protein concentration was uniformly adjusted to 2 µg/µL, LDS loading buffer (4X) and sample reducing agent (10X) were added, and the samples were heated at a constant temperature of 100°C for 10 minutes. For Western blotting, 10 µL of sample was loaded into each well of an SDS-PAGE gel, and electrophoresis was performed at 80 V for 30 minutes, followed by 120 V for 90 minutes. […] The membrane was then cut according to the molecular weights of the proteins to be detected. […]

In the case of `[2H]C([2H])([2H])NC(=O)c1ccc(N2CCN(Cc3cnc4c(N)c(CC)c(=O)[nH]c4c3)CC2)c(F)n1` [Example 4, 5-(4-((8-Amino-7-ethyl-6-oxo-5,6-dihydro-1,5-naphthyridin-3-yl)methyl)piperazin-1-yl)-6-fluoro-N-(methyl-d3)picolinamide], the tumour regression ([1]; FIG. 3) is reported as “promoted tumour regression”, the ORR ([1]; treatment 28 days) is reported as 60% and the IC50 (MDA-MB-436; Homo sapiens, MDA-MB-436, 168 h, BRCA1-mutated, 7 days, read-out: MDA-MB-436 IC50) is reported as 1.93 nM. The “BRCA1 mutation/WT selectivity fold” value (MDA-MB-436; MDA-MB-231 vs MDA-MB-436) was >5,181 fold, the “inhibition on cell proliferation at the highest concentration” value (DLD-1 WT; BRCA2-normal DLD-1 cell line, 10 µM) was “no detectable inhibition” and the IC50 (DLD-1 WT; Homo sapiens, DLD-1, 168 h, BRCA2-normal, 7 days) was > 10000 nM. The “cleaved caspase-3 in tumour tissues” value (cleaved caspase-3) was “induced an increase in cleaved caspase-3”.
